Laboratory results reported in ChEMBL document CHEMBL5620380, “Identification of 5-[5-cyano-1-(pyridin-2-ylmethyl)-1H-indole-3-carboxamido] thiazole-4-carboxylic acid as a promising dual inhibitor of urate transporter 1 and xanthine oxidase” (Eur J Med Chem, 2023).
Active and inactive are the calls of the source. The calls are words filed in the database; no cut-off is given here.

Tests used:
[1] = target: T1, Solute carrier family 22 member 12 (Homo sapiens, UniProt Q96S37); test: Inhibition of URAT1 (unknown origin)-mediated 14C uric acid uptake expressed in HEK293 cells using 14C uric acid as substrate at 10 uM by liquid scintillation counting analysis; type: cell-based
T1 sequence (Q96S37 whole entry): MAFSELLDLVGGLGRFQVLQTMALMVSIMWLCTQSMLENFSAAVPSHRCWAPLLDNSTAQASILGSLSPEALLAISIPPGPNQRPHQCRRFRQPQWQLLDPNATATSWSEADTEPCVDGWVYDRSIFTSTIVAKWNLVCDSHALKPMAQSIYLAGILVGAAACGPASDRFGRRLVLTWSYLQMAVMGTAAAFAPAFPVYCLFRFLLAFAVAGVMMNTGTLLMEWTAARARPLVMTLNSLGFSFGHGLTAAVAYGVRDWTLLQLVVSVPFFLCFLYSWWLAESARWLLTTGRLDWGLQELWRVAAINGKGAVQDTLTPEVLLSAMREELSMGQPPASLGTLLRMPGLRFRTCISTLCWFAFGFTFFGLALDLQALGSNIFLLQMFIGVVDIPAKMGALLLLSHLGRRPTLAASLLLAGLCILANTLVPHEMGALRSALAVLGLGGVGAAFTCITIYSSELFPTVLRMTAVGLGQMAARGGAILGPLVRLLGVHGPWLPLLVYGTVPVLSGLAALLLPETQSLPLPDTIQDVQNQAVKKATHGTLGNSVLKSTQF

[2] = target: T2, Xanthine dehydrogenase/oxidase (Bos taurus, UniProt P80457); test: Inhibition of bovine XO assessed as inhibition of uric acid production using xanthine as substrate preincubated for 25 mins followed by substrate addition and measured for first 2 mins by spectrophotometric analysis
Rattus norvegicus [3] = test: Hypouricemic activity against potassium oxonate-induced hyperuricemia Sprague-Dawley rat model assessed as decrease in serum uric acid level at 10 mg/kg, ig administered 1 hr post-potassium oxonate challenge and measured after 3 hrs; type: functional; conditions: po
[4] = target: T2, Xanthine dehydrogenase/oxidase; test: Potency index, ratio of allopurinol IC50 to test compound IC50 for inhibition of bovine XO; conditions: cattle
Rattus norvegicus [5] = test: Hypouricemic activity against potassium oxonate-induced hyperuricemia Sprague-Dawley rat model assessed as decrease in AUC of serum uric acid level at 10 mg/kg, ig administered 1 hr post-potassium oxonate challenge and measured after 1 to 5 hrs; type: functional; conditions: po, time 1-5 hrs
[6] = target: T2, Xanthine dehydrogenase/oxidase; test: Mixed inhibition of bovine XO assessed as increase in Km with decrease in Vmax using xanthine as substrate by Lineweaver-Burk plot analysis; conditions: cattle
Rattus norvegicus [7] = test: Hypouricemic activity against potassium oxonate-induced hyperuricemia Sprague-Dawley rat model assessed as decrease in serum uric acid level at 10 mg/kg, ig administered 1 hr post-potassium oxonate challenge and measured after 1 to 5 hrs; type: functional, organism-based; conditions: time 1-5 hrs
[8] = target: T2, Xanthine dehydrogenase/oxidase; test: Inhibition of bovine XO assessed as inhibition of uric acid production using xanthine as substrate at 10 uM preincubated for 25 mins followed by substrate addition and measured for first 2 mins by spectrophotometric analysis; conditions: cattle, time 27 min

T2 sequence (P80457 whole entry): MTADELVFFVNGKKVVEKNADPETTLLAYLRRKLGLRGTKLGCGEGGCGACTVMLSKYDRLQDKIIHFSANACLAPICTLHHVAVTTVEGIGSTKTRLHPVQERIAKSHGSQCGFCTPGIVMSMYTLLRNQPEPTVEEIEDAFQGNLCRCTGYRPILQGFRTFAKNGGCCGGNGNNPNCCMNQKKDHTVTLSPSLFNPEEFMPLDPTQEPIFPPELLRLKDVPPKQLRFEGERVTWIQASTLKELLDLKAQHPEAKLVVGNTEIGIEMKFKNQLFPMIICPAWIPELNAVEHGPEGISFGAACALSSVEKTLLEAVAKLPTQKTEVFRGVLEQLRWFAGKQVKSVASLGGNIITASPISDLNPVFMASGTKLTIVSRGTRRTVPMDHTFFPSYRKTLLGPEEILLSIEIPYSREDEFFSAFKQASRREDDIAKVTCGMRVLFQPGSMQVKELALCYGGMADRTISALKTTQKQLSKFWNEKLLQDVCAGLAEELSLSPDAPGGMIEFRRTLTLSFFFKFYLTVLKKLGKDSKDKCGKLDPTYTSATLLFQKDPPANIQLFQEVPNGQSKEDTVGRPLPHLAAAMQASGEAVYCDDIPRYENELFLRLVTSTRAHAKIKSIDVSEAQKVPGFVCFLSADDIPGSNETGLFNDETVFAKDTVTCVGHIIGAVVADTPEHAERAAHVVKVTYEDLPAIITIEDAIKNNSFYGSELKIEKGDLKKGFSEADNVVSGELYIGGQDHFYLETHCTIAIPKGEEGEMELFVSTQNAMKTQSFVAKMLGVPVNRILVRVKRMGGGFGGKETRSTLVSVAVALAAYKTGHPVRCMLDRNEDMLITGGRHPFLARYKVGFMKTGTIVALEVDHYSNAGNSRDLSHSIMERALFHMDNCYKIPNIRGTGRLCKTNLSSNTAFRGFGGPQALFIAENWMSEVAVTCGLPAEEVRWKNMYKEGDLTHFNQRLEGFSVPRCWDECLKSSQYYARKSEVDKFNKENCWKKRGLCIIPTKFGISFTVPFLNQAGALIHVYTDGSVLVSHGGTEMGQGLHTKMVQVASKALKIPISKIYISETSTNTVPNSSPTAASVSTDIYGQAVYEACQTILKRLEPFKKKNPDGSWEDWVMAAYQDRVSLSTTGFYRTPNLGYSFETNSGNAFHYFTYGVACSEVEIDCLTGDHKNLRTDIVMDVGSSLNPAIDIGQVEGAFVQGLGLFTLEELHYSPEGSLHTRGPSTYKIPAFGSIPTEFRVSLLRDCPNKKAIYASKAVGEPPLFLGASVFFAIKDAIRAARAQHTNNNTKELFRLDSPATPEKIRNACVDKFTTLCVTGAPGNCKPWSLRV

SMILES | inhibition at 10 µM [1] | also measured
N#Cc1ccc2c(c1)c(C(=O)Nc1scnc1C(=O)O)cn2Cc1ccccn1 | 48% | IC50 [2]: 1.01 µM; inhibition in vivo at 10 mg/kg (Rattus norvegicus [3]): 22.3%; Ratio IC50 [4]: 9.1; inhibition in vivo at 10 mg/kg (Rattus norvegicus [5]): 25.8%; inhibition (INH) [6]: Active
O=C(O)c1ccccc1NC(=O)c1cn(Cc2ncccn2)c2ccccc12 | 49.9% | 
Cc1ccc(Cn2cc(C(=O)Nc3ccccc3C(=O)O)c3ccccc32)cc1 | 61% | 
O=C(O)c1ccccc1NC(=O)c1cn(Cc2cccnn2)c2ccccc12 | 10.4% | 
O=C(O)c1ccc(NC(=O)c2c[nH]c3ccccc23)cc1 | 0.1% | 
O=C(O)c1ccccc1NC(=O)c1cn(Cc2ccc(F)cc2)c2ccccc12 | 73.4% | 
O=C(O)c1ccccc1NC(=O)c1cn(Cc2cnccn2)c2ccccc12 | 52.7% | 
CC(C)(C)c1ccc(Cn2cc(C(=O)Nc3ccccc3C(=O)O)c3ccccc32)cc1 | -4.8% | 
O=C(O)c1ccccc1NC(=O)c1cn(Cc2cccs2)c2ccccc12 | 56.7% | 
O=C(O)CSc1nnc(Br)n1-c1ccc(C2CC2)c2ccccc12 | 47% | 
O=C(O)c1ccccc1NC(=O)c1cn(Cc2ccc(Br)cc2)c2ccccc12 | 73.6% | 
N#Cc1ccc2c(c1)c(C(=O)Nc1ncc(C(=O)O)s1)cn2Cc1ccccn1 | 15.9% | IC50 [2]: 2.12 µM
O=C(O)c1ccccc1NC(=O)c1cn(Cc2ccccn2)c2ccccc12 | 81.4% | 
O=C(O)c1ccccc1NC(=O)c1cn(Cc2cscn2)c2ccccc12 | 64.4% | 
N#Cc1ccc2c(C(=O)Nc3ccccc3C(=O)O)cn(Cc3ccccn3)c2c1 | 65.7% | 
COc1ccc(Cn2cc(C(=O)Nc3ccccc3C(=O)O)c3ccccc32)cc1 | 53.9% | 
O=C(O)c1ccccc1NC(=O)c1cn(Cc2ccccc2)c2ccccc12 | 41.3% | 

SMILES | inhibition at 10 µM [1] | also measured
O=C(O)c1ccccc1NC(=O)c1cn(Cc2cccc(F)c2)c2ccccc12 | 48% | 
Cc1ccc2c(C(=O)Nc3ccccc3C(=O)O)cn(Cc3ccccn3)c2c1 | 49.1% | 
O=C(O)c1ccccc1NC(=O)c1c[nH]c2ccccc12 | 33.2% | 
O=C(O)c1ccccc1NC(=O)c1cn(Cc2ccccn2)c2cc(F)ccc12 | 51.6% | 
O=C(O)c1ccccc1NC(=O)c1cn(Cc2ccccc2F)c2ccccc12 | 40.7% | 
O=C(O)c1cccc(NC(=O)c2c[nH]c3ccccc23)c1 | 25.8% | 
Cc1ccc2c(c1)c(C(=O)Nc1ccccc1C(=O)O)cn2Cc1ccccn1 | 46.8% | 
COc1ccc(/C=C/C(=O)Nc2ccccc2C(=O)O)cc1OC | 44.9% | Activity (Rattus norvegicus [7]): Active
O=C(O)c1ccccc1NC(=O)c1cn(Cc2ccccn2)c2ccc(F)cc12 | 51.1% | 
O=C(O)c1ccccc1NC(=O)c1cn(Cc2ccncc2)c2ccccc12 | 68.4% | 
O=C(O)c1ccccc1NC(=O)c1cn(C(=O)c2ccccc2)c2ccccc12 | 10.9% | 
N#Cc1ccc2c(c1)c(C(=O)Nc1ccccc1C(=O)O)cn2Cc1ccccn1 | 60.7% | inhibition at 10 µM [8]: 33.5%
N#Cc1ccc2c(c1)c(C(=O)Nc1cc[nH]c1C(=O)O)cn2Cc1ccccn1 | 51% | IC50 [2]: 2.67 µM
Oc1ncnc2[nH]ncc12 |  | Activity (Rattus norvegicus [7]): Active
O=C(O)c1ccccc1NC(=O)c1cn(Cc2ccc(Cl)cc2)c2ccccc12 | 69.4% | 
O=C(O)c1ccccc1NC(=O)c1cn(Cc2cccnc2)c2ccccc12 | 43.1% | 
